Consider eight compounds from ChEMBL document CHEMBL1153321, “Approaches to the simultaneous inactivation of metallo- and serine-beta-lactamases” (Bioorg Med Chem Lett, 2009).

Assay [1] concerns the target Beta-lactamase TEM (Enterobacter cloacae) (UniProt Q6W9J1). Kind of assay: Ratio of Kcat to Km of Enterobacter cloacae beta-lactamase TEM-1.
Assay [2] relates to Enterobacter cloacae. Kind of assay: Ratio of Kcat to Km of Enterobacter cloacae beta-lactamase OXA-1.
For assay [3], the system named is Enterobacter cloacae. Nature of the assay: Activity of Enterobacter cloacae beta-lactamase OXA-1.

Beta-lactamase TEM (Enterobacter cloacae), sequence (Q6W9J1 as listed by the source): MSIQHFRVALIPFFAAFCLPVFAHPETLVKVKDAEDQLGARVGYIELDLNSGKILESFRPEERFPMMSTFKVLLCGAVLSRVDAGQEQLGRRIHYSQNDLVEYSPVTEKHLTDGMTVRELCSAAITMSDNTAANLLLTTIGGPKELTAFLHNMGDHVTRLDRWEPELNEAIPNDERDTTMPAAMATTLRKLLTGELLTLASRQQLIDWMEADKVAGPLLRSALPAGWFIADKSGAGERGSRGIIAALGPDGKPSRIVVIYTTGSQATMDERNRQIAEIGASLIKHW

The Km is the concentration of substrate that gives half-maximal velocity. With `CC(=O)OCC1=C(C(=O)O)N2C(=O)[C@@H](N(O)C=O)[C@H]2SC1`, the Ratio in assay [1] worked out at 25 s⁻¹ M⁻¹; in the assay with Enterobacter cloacae [2], 75 s⁻¹ M⁻¹. Also, the Km in the assay on Enterobacter cloacae [3] is over 400 µM.

On to `CC1=C(C(=O)O)N2C(=O)/C(=N/O)[C@H]2S(=O)(=O)C1`, for which the Ratio in assay [1] was found to be 40 s⁻¹ M⁻¹.

As a reminder, the kcat is the number of substrate molecules converted per active site and unit of time at saturation. Regarding `CC(=O)OCC1=C(C(=O)O)N2C(=O)[C@@H](NC=O)[C@H]2SC1`, the Ratio in assay [1] stood at 6 ×10⁴ /s/M. In the assay with Enterobacter cloacae [2], the Ratio was found to be 3160 s⁻¹ M⁻¹. For the same compound, in the assay on Enterobacter cloacae [3], the Km worked out at 323 µM and the turnover number (kcat) is 1.02 s⁻¹.

As for `CC(=O)OCC1=C(C(=O)O)N2C(=O)/C(=N/O)[C@H]2SC1`, the figures for the Ratio (in assay [1]; in the assay with Enterobacter cloacae [2]) were 158 s⁻¹ M⁻¹ and 88 s⁻¹ M⁻¹, respectively. Moreover, the Km with Enterobacter cloacae [3] is over 400 µM.

Regarding `CC(=O)OCC1=C(C(=O)O)N2C(=O)[C@@H](NO)[C@H]2SC1`, the values for the Ratio (in assay [1]; in the assay on Enterobacter cloacae [2]) were 2620 s⁻¹ M⁻¹ and 66 s⁻¹ M⁻¹, respectively. Besides, the Km with Enterobacter cloacae [3] is over 400 µM.

For the compound `CC(=O)OCC1=C(C(=O)O)N2C(=O)/C(=N/O)[C@H]2S(=O)(=O)C1`, the figures for the Ratio (in assay [1]; in the assay on Enterobacter cloacae [2]) were 1690 s⁻¹ M⁻¹ and 990 s⁻¹ M⁻¹, respectively. Moreover, the Km in the assay on Enterobacter cloacae [3] was over 400 µM.

With `CC(=O)OCC1=C(C(=O)O)N2C(=O)[C@@H](NC(=O)Cc3cccs3)[C@H]2SC1`, in assay [1], the Ratio worked out at 4.85 ×10⁵ /s/M. The Ratio with Enterobacter cloacae [2] is 8.51 ×10⁴ /s/M. Besides, in the assay on Enterobacter cloacae [3], the Km came out at 13.9 µM and the kcat amounted to 1.81 s⁻¹.

As to `CC(=O)OCC1=C(C(=O)O)N2C(=O)[C@@H](N(O)C(=O)Cc3ccccc3)[C@H]2SC1`, the Ratio in assay [1] was 2620 s⁻¹ M⁻¹. Further, the Ratio in the assay with Enterobacter cloacae [2] stood at 2020 s⁻¹ M⁻¹. Besides, in the assay on Enterobacter cloacae [3], the Km was determined as 60 µM and the kcat stood at 0.121 s⁻¹.
